Reference: ChEMBL document CHEMBL1201862, “PubChem BioAssay data set” (2004)
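In this assay, cells in 96-well plates receive the compound at five concentrations for 48 hours. Endpoints are linearly interpolated between the surrounding concentrations. GI50 = concentration required for 50% inhibition of growth.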 Active and inactive are the calls of the source. Rule as the data show it: active = GI50 up to about 1.1 µM and inactive = higher.

How the values were obtained:
Assay in all cases: growth of human tumour cells (NCI), 48 h
HOP-62 = tested on: HOP-62
HT-29 = tested on: HT-29
A549 = tested on: A549
SK-MEL-28 = tested on: SK-MEL-28
NCI-H522 = tested on: NCI-H522
NCI-H23 = tested on: NCI-H23
HL-60 = tested on: HL-60
SW-620 = tested on: SW-620
COLO 205 = tested on: COLO 205
UACC-62 = tested on: UACC-62
MOLT-4 = tested on: MOLT-4
OVCAR-4 = tested on: OVCAR-4
SNB-19 = tested on: SNB-19
ACHN = tested on: ACHN
SN12C = tested on: SN12C
HCT-116 = tested on: HCT-116
OVCAR-3 = tested on: OVCAR-3
KM12 = tested on: KM12
UACC-257 = tested on: UACC-257
SK-OV-3 = tested on: SK-OV-3

| SMILES | GI50 (HOP-62) | GI50 (HT-29) | GI50 (A549) | GI50 (SK-MEL-28) | GI50 (NCI-H522) | GI50 (NCI-H23) | GI50 (HL-60) | GI50 (SW-620) | GI50 (COLO 205) | GI50 (UACC-62) | GI50 (MOLT-4) | GI50 (OVCAR-4) | GI50 (SNB-19) | GI50 (ACHN) | GI50 (SN12C) | GI50 (HCT-116) | GI50 (OVCAR-3) | GI50 (KM12) | GI50 (UACC-257) | GI50 (SK-OV-3) |
| --- | --- | --- | --- | --- | --- | --- | --- | --- | --- | --- | --- | --- | --- | --- | --- | --- | --- | --- | --- | --- |
| O=C1c2ccccc2-c2nnc(-c3ccc(Cl)cc3)cc21 | > 10 µM (inactive) | > 10 µM (inactive) | > 10 µM (inactive) | > 10 µM (inactive) | > 10 µM (inactive) | > 10 µM (inactive) | > 10 µM (inactive) | > 10 µM (inactive) | > 10 µM (inactive) | > 10 µM (inactive) | > 10 µM (inactive) | > 10 µM (inactive) | > 10 µM (inactive) | > 10 µM (inactive) | > 10 µM (inactive) | > 10 µM (inactive) | > 10 µM (inactive) | > 10 µM (inactive) | > 10 µM (inactive) | > 10 µM (inactive) |
| CCOCC(=O)N[C@H]1CCc2cc(OC(=O)COCC)c(OC)c(OC)c2-c2ccc(SC)c(=O)cc21 | 0.0533 µM (active) | 0.0177 µM (active) | 0.0355 µM (active) | 0.0143 µM (active) | 0.0151 µM (active) | 0.0273 µM (active) | 0.00473 µM (active) | 0.0171 µM (active) | 0.0219 µM (active) | 0.0102 µM (active) | 0.0269 µM (active) | 10.5 µM (inactive) | 0.885 µM (active) | 0.0655 µM (active) | 0.0625 µM (active) | 0.0175 µM (active) | 0.01 µM (active) | 0.00708 µM (active) | 0.00902 µM (active) | 0.00867 µM (active) |
| COC(=O)c1c(-c2ccccc2)cc2c3cc(-c4ccccc4)c(C(=O)OC)n3c3ccccc3n12 | > 100 µM (inactive) | > 100 µM (inactive) | > 100 µM (inactive) | > 100 µM (inactive) | > 91 µM (inactive) | > 100 µM (inactive) | > 100 µM (inactive) | > 100 µM (inactive) | > 100 µM (inactive) | > 100 µM (inactive) | > 100 µM (inactive) | 22.6 µM (inactive) | > 100 µM (inactive) | > 100 µM (inactive) | > 100 µM (inactive) | > 100 µM (inactive) | > 100 µM (inactive) | > 100 µM (inactive) | > 100 µM (inactive) | > 100 µM (inactive) |
| Cc1cc(N(CCC#N)CCC#N)ccc1/C=C1\SC(=S)NC1=O | 22.7 µM (inactive) | > 100 µM (inactive) | 62.4 µM (inactive) | > 100 µM (inactive) | 19.4 µM (inactive) | > 100 µM (inactive) | 32.5 µM (inactive) | > 100 µM (inactive) | > 100 µM (inactive) | 48.6 µM (inactive) | 91 µM (inactive) | > 100 µM (inactive) | > 100 µM (inactive) | > 100 µM (inactive) | > 100 µM (inactive) | 54.2 µM (inactive) | 51.3 µM (inactive) | 62.2 µM (inactive) | > 100 µM (inactive) | 21.5 µM (inactive) |
| C#Cc1ccccc1C(=O)OC | > 100 µM (inactive) | > 100 µM (inactive) | > 100 µM (inactive) | > 100 µM (inactive) | 35.9 µM (inactive) | > 100 µM (inactive) | > 100 µM (inactive) | > 100 µM (inactive) | > 100 µM (inactive) | > 100 µM (inactive) | > 100 µM (inactive) | > 100 µM (inactive) | > 100 µM (inactive) | > 100 µM (inactive) | > 100 µM (inactive) | > 100 µM (inactive) | > 100 µM (inactive) | > 100 µM (inactive) | > 100 µM (inactive) | > 100 µM (inactive) |
| O=CN/C=C/c1ccccc1O | > 100 µM (inactive) | > 100 µM (inactive) | > 100 µM (inactive) | > 100 µM (inactive) | > 100 µM (inactive) | > 100 µM (inactive) | > 86.7 µM (inactive) | > 100 µM (inactive) | > 100 µM (inactive) | > 100 µM (inactive) | > 100 µM (inactive) | > 100 µM (inactive) | > 100 µM (inactive) | > 100 µM (inactive) | > 100 µM (inactive) | > 100 µM (inactive) | > 100 µM (inactive) | > 100 µM (inactive) | > 100 µM (inactive) | > 100 µM (inactive) |
